Four compounds from ChEMBL document CHEMBL5576128, “Discovery of Potent Isoquinolinequinone N-Oxides to Overcome Cancer Multidrug Resistance” (J Med Chem, 2024) can be followed below.

Data set [1] deals with NCI-H460. In words: Inhibition of cell proliferation in human NCI-H460 cells at 50 nM incubated for 48 hrs by BrdU incorporation assay. It counts as functional, cell-based.
Data set [2] has as its system NCI-H460. In words: Inhibition of human NCI-H460 cells […] at 50 nM incubated for 48 hrs. It counts as functional, cell-based.
For data set [3], the system named is Doxorubicin-resistant NCI-H460/R. In words: Inhibition of human Doxorubicin-resistant NCI-H460/R cells […] assessed as reduction in viability at 2 uM incubated for 48 hrs. It counts as functional, cell-based.
The subject of data set [4] is Paclitaxel-resistant DLD1-TxR cells. Nature of the data set: Effect on human Paclitaxel-resistant DLD1-TxR cells […] assessed as change in circularity at 0.35 to 0.7 uM incubated for 48 hrs. The settings on record: dose 0.35-0.7 µM. It counts as functional, cell-based.
Data set [5] has as its system NCI-H460. In words: Effect on PARP-1 expression in human NCI-H460 cells at 0.35 to 0.7 uM incubated for 48 hrs by Western blotting analysis. It counts as functional, cell-based. The settings on record: dose 0.35-0.7 µM.
Data set [6] concerns NCI-H460. In words: Inhibition of cell proliferation in human NCI-H460 cells at 0.35 to 0.7 uM incubated for 48 hrs by BrdU incorporation assay. It counts as functional, cell-based. Conditions: dose 0.35-0.7 µM.
In data set [7] the test system is NCI-H460. In words: Inhibition of human NCI-H460 cells spheroid viability by CellTiter-Glo 3D viability assay. It counts as functional, cell-based.
For data set [8], the system named is NCI-H460. In words: Upregulation of p21 expression in human NCI-H460 cells at 0.7 uM incubated for 48 hrs by Western blotting analysis. It counts as functional, cell-based.
Data set [9] has as its system NCI-H460. In words: Induction of cell cycle arrest in human NCI-H460 cells assessed as decrease in S phase cells at 0.35 to 0.7 uM incubated for 48 hrs by propidium iodide staining based flow cytometry analysis. The settings on record: dose 0.35-0.7 µM. It counts as functional.
In the next data set the test system is MCF-12A. In words: Cytotoxicity against human MCF-12A cells at 1 to 5 uM incubated for 48 hrs by SRB method. It counts as toxicity, cell-based. Conditions: dose 1-5 µM.
Data set [10] concerns Paclitaxel-resistant DLD1-TxR cells. Nature of the data set: Inhibition of human Paclitaxel-resistant DLD1-TxR cells spheroid viability by CellTiter-Glo 3D viability assay. It counts as functional, cell-based.
For data set [11], the system named is NCI-H460. In words: Effect on human NCI-H460 cells […] assessed as change in circularity at 0.35 to 0.7 uM incubated for 48 hrs. It counts as functional, cell-based. The settings on record: dose 0.35-0.7 µM.
The test system of the next data set is MRC5. In words: Cytotoxicity against human MRC5 cells at less than 0.5 uM incubated for 48 hrs by SRB method. It counts as toxicity, cell-based. The settings on record: mrc5, 48 h.
Data set [12] deals with NCI-H460. Nature of the data set: Downregulation of procaspase-3 expression in human NCI-H460 cells at 0.35 to 0.7 uM incubated for 48 hrs by Western blotting analysis. It counts as functional, cell-based. The settings on record: dose 0.35-0.7 µM.
The subject of data set [13] is NCI-H460. Nature of the data set: Induction of DNA damage in human NCI-H460 cells at 0.7 uM incubated for 48 hrs by Western blotting analysis. It counts as functional, cell-based.
Data set [14] relates to NCI-H460. In words: Effect on human NCI-H460 cells […] assessed as change in compactness at 0.35 to 0.7 uM incubated for 48 hrs. It counts as functional, cell-based. Conditions: dose 0.35-0.7 µM.
Data set [15] concerns NCI-H460. Nature of the data set: Upregulation of p53 expression in human NCI-H460 cells at 0.35 to 0.7 uM incubated for 48 hrs by Western blotting analysis. Conditions: dose 0.35-0.7 µM. It counts as functional, cell-based.
For data set [16], the system named is NCI-H460. Nature of the data set: Upregulation of TP53BP1 expression in human NCI-H460 cells at high concentration incubated for 48 hrs by Western blotting analysis. It counts as functional, cell-based.
For data set [17], the system named is NCI-H460. In words: Effect on p62 expression in human NCI-H460 cells at 0.35 to 0.7 uM incubated for 48 hrs by Western blotting analysis. The settings on record: dose 0.35-0.7 µM. It counts as functional, cell-based.
Data set [18] relates to DLD-1. In words: Effect on human DLD-1 cells […] assessed as change in diameter at 0.35 to 0.7 uM incubated for 48 hrs. It counts as functional, cell-based. Conditions: dose 0.35-0.7 µM.
Data set [19] deals with Doxorubicin-resistant NCI-H460/R. Nature of the data set: Effect on human Doxorubicin-resistant NCI-H460/R cells […] assessed as change in circularity at 0.35 to 0.7 uM incubated for 48 hrs. Conditions: dose 0.35-0.7 µM. It counts as functional, cell-based.
The subject of data set [20] is NCI-H460. Nature of the data set: Upregulation of cyclin D1 expression in human NCI-H460 cells at 0.35 to 0.7 uM incubated for 48 hrs by Western blotting analysis. It counts as functional, cell-based. The settings on record: dose 0.35-0.7 µM.
The subject of data set [21] is NCI-H460. Nature of the data set: Inhibition of cell growth in human NCI-H460 cells incubated for 48 hrs by trypan blue exclusion assay. It counts as functional, cell-based.
In data set [22] the test system is NCI-H460. Nature of the data set: Induction of cell cycle arrest in human NCI-H460 cells assessed as increase in G1 phase cells at 0.35 to 0.7 uM incubated for 48 hrs by propidium iodide staining based flow cytometry analysis. It counts as functional. The settings on record: dose 0.35-0.7 µM.
The test system of data set [23] is NCI-H460. In words: Effect on human NCI-H460 cells […] assessed as change in diameter at 0.35 to 0.7 uM incubated for 48 hrs. It counts as functional, cell-based. Conditions: dose 0.35-0.7 µM.
For data set [24], the system named is Doxorubicin-resistant NCI-H460/R. In words: Effect on human Doxorubicin-resistant NCI-H460/R cells […] assessed as change in diameter at 0.35 to 0.7 uM incubated for 48 hrs. It counts as functional, cell-based. The settings on record: dose 0.35-0.7 µM.
Data set [25] relates to DLD-1. Nature of the data set: Effect on human DLD-1 cells […] assessed as change in compactness at 0.35 to 0.7 uM incubated for 48 hrs. The settings on record: dose 0.35-0.7 µM. It counts as functional, cell-based.
Data set [26] concerns Doxorubicin-resistant NCI-H460/R. Nature of the data set: Effect on human Doxorubicin-resistant NCI-H460/R cells […] assessed as change in compactness at 0.35 to 0.7 uM incubated for 48 hrs. It counts as functional, cell-based. Conditions: dose 0.35-0.7 µM.
Data set [27] has as its system Paclitaxel-resistant DLD1-TxR cells. Nature of the data set: Effect on human Paclitaxel-resistant DLD1-TxR cells […] assessed as change in compactness at 0.35 to 0.7 uM incubated for 48 hrs. It counts as functional, cell-based. Conditions: dose 0.35-0.7 µM.
The test system of data set [28] is NCI-H460. Nature of the data set: Induction of ROS accumulation in human NCI-H460 cells at 0.7 to 5 uM incubated for 6 hrs by CM-H2DCFDA staining based flow cytometry analysis. It counts as functional, cell-based. The settings on record: dose 0.7-5 µM.
In data set [29] the test system is DLD-1. In words: Effect on human DLD-1 cells […] assessed as change in circularity at 0.35 to 0.7 uM incubated for 48 hrs. It counts as functional, cell-based. Conditions: dose 0.35-0.7 µM.
Data set [30] concerns NCI-H460. Nature of the data set: Induction of cell cycle arrest in human NCI-H460 cells assessed as increase in sub-G1 phase cells at 0.35 to 0.7 uM incubated for 48 hrs by propidium iodide staining based flow cytometry analysis. It counts as functional. The settings on record: dose 0.35-0.7 µM.
The subject of data set [31] is NCI-H460. Nature of the data set: Upregulation of p-histone H2A.X expression in human NCI-H460 cells at high concentration incubated for 48 hrs by Western blotting analysis. It counts as functional, cell-based.
Data set [32] has as its target ATP-dependent translocase ABCB1 (Homo sapiens, UniProt P08183). In words: Inhibition of P-gp mediated drug efflux in human NCI-H460 cells assessed as accumulation of rhodamine-123 accumulation at 10 to 20 uM incubated for 1 hr by flow cytometry analysis. It counts as cell-based. The settings on record: nci-h460, 1 h, dose 10-20 µM.
Data set [33] has as its system NCI-H460. Nature of the data set: Effect on LC3-II expression in human NCI-H460 cells at 0.35 to 0.7 uM incubated for 48 hrs by Western blotting analysis. The settings on record: dose 0.35-0.7 µM. It counts as functional, cell-based.
Data set [34] concerns Doxorubicin-resistant NCI-H460/R. In words: Inhibition of human Doxorubicin-resistant NCI-H460/R cells spheroid viability by CellTiter-Glo 3D viability assay. It counts as functional, cell-based.
The subject of data set [35] is Paclitaxel-resistant DLD1-TxR cells. Nature of the data set: Effect on human Paclitaxel-resistant DLD1-TxR cells […] assessed as change in diameter at 0.35 to 0.7 uM incubated for 48 hrs. It counts as functional, cell-based. The settings on record: dose 0.35-0.7 µM.
The subject of data set [36] is DLD-1. Nature of the data set: Inhibition of human DLD-1 cells spheroid viability by CellTiter-Glo 3D viability assay. It counts as functional, cell-based.
The test system of data set [37] is NCI-H460. In words: Effect on LC3-I expression in human NCI-H460 cells at 0.35 to 0.7 uM incubated for 48 hrs by Western blotting analysis. It counts as functional, cell-based. The settings on record: dose 0.35-0.7 µM.
In data set [38] the test system is NCI-H460. In words: Induction of apoptosis in human NCI-H460 cells at 0.35 to 0.7 uM incubated for 48 hrs by Annexin-V FITC/propidium iodide staining based flow cytometry analysis. It counts as functional, cell-based. Conditions: dose 0.35-0.7 µM.
For the next data set, the system named is NCI/ADR-RES. In words: Potency index, ratio of doxorubicin GI50 to test compound GI50 for human NCI/ADR-RES cells. It counts as functional.

The source made the active and inactive calls. No cut-off for these calls is given here.

Chain of ATP-dependent translocase ABCB1 (P08183 whole entry): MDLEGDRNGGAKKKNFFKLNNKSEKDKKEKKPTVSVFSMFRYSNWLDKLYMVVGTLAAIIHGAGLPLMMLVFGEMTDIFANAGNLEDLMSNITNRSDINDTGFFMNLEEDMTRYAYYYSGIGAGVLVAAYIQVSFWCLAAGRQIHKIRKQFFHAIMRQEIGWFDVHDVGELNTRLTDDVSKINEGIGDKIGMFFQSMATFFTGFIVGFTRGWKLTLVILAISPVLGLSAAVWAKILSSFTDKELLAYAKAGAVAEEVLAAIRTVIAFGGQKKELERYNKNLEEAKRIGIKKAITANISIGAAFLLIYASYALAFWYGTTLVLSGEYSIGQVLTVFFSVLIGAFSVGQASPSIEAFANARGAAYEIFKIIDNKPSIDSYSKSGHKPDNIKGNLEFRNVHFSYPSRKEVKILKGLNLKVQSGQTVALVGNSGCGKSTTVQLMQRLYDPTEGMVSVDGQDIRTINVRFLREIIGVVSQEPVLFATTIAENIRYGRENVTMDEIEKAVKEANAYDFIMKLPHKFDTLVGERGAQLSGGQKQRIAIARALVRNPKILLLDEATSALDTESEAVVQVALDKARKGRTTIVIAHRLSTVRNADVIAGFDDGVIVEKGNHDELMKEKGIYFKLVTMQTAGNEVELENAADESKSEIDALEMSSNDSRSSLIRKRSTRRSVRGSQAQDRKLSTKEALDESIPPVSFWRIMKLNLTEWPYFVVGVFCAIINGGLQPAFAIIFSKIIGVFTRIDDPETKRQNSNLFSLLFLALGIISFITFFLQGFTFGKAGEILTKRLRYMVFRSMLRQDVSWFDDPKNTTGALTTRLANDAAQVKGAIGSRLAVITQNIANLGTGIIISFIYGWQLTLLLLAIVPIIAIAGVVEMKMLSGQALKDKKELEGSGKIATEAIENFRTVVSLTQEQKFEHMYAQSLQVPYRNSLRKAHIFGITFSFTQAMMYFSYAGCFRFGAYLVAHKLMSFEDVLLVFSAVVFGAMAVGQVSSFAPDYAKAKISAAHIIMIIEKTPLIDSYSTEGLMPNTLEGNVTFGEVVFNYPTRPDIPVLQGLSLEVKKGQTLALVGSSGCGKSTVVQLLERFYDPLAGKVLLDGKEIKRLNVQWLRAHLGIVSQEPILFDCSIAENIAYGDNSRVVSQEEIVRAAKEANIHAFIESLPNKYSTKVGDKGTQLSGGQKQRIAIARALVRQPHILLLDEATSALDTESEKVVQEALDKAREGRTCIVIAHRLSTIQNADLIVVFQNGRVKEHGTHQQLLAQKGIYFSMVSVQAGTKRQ

As to `COc1cccc2c1C(=O)c1c(O)c3c(c(O)c1C2=O)C[C@@](O)(C(=O)CO)C[C@@H]3O[C@H]1C[C@H](N)[C@H](O)[C@H](C)O1`, the inhibition result in the data set with NCI-H460 [1] was “Active”. For the same compound, in the data set on NCI-H460 [2], the inhibition entry is “inactive”.
Consider `COc1cc([C@@H]2c3cc4c(cc3[C@@H](O[C@@H]3O[C@@H]5CO[C@@H](C)O[C@H]5[C@H](O)[C@H]3O)[C@H]3COC(=O)[C@H]23)OCO4)cc(OC)c1O`, for which the outcome in data set [3] was inactive.
`COC(=O)c1c2c(c[n+]([O-])c1C)C(=O)C=C(NCc1ccccc1)C2=O`: the result (in data set [4]; in the data set with NCI-H460 [5]; in the data set with NCI-H460 [11]; in the data set with NCI-H460 [13]; in the data set on NCI-H460 [14]; in the data set with NCI-H460 [15]) was inactive. Also, the outcome (in the data set on NCI-H460 [17]; with DLD-1 [18]; in data set [19]; in the data set with NCI-H460 [23]; in [24]; in the data set with DLD-1 [25]) was inactive. Besides, the result (in data set [26]; in [27]; in the data set on DLD-1 [29]; in the data set on NCI-H460 [33]; in data set [35]; in the data set with NCI-H460 [37]) was inactive. In addition, the outcome in the data set on NCI-H460 [38] was inactive. In addition, the inhibition result (in the data set with NCI-H460 [6]; in the data set on NCI-H460 [7]; in [10]; in the data set with NCI-H460 [21]; in data set [34]; in the data set with DLD-1 [36]) was “Active” throughout. The outcome in the data set with NCI-H460 [8], in the data set on NCI-H460 [9], in the data set on NCI-H460 [12], with NCI-H460 [16], with NCI-H460 [20] and in the data set with NCI-H460 [22] was Active. The outcome in the data set with NCI-H460 [28], with NCI-H460 [30] and in the data set with NCI-H460 [31] was Active. Besides, the Activity result in the data set with MCF-12A and in the data set with MRC5 was “Non-Toxic” in each case. Besides, in data set [32], the “inhibition (INH)” value is “Active”.
Regarding `COC(=O)c1c2c(c(C)[n+]([O-])c1C)C(=O)C=C(NCc1ccccc1)C2=O`, the RatioGI50 in the data set with NCI/ADR-RES is listed as 40.
